Earlier results, collected in PMC7395068, “The evolution of strategies to minimise the risk of human drug-induced liver injury (DILI) in drug discovery and development” (Archives of Toxicology, 2020).
Read-outs that look alike come from different tables or passages of the source.

Key:
HepG2 cells [1] = conditions: cited from earlier work
HepG2 cells [2] = conditions: In vitro Assay; ref Persson 2013; cited from earlier work
human hepatocytes = conditions: In vitro Assay; ref Xu 2008; cited from earlier work
PHH spheroids = conditions: In vitro Assay; ref Vorrink 2018; cited from earlier work
[3] = cited from earlier work
[4] = cited from earlier work; remark: listed apart in the source
[5] = system: THLE or HepG2 cells, isolated mitochondria, BSEP; conditions: cited from earlier work
[6] = system: THLE-Null and THLE-3A4 cells; conditions: In vitro Assay; ref Gustafsson 2014; cited from earlier work
rBsep = conditions: In vitro Assay; ref Dawson 2012; cited from earlier work
[7] = system: isolated mouse liver mitochondria; conditions: In vitro Assay; ref Porceddu 2012; cited from earlier work
[8] = system: primary human hepatocytes, NIH3T3 fibroblasts, BSEP, CYP3A4; conditions: cited from earlier work
[9] = In vitro Assay, ref O'Brien 2006
[10] = In vitro Assay, ref Schadt 2015

| Compound | Structural based (HCI) (human hepatocytes) | hLiMTs ATP <20 x Cmax (PHH spheroids) | In vivo DILI ([3]; ref Vorrink 2018) | In vivo DILI ([3]; ref Xu 2008) | DILI +VE (5-8), DILI -VE (-4) ([4]; ref Chen 2016) | DILI severity category ([4]; ref Chen 2016) | also measured |
| --- | --- | --- | --- | --- | --- | --- | --- |
| CN(C)C(=O)Oc1cc(OC(=O)N(C)C)cc(C(O)CNC(C)(C)C)c1 (stereo not drawn) [bambuterol] | -VE | -VE | -VE | -VE | – | – | Structural based (HCI) (HepG2 cells [1]; [9]): +VE; Cluser analysis (HepG2 cells [2]): -VE; Structural based (HCI) (HepG2 cells [2]): -VE; In vivo DILI ([3]; ref O'Brien 2006): -VE; In vivo DILI ([3]; ref Persson 2013): -VE |
| C[C@H](CCC(=O)O)[C@H]1CC[C@H]2[C@@H]3[C@H](O)C[C@@H]4C[C@H](O)CC[C@]4(C)[C@H]3CC[C@]12C [chenodiol] | +VE | +VE (IC20 < 20 × Cmax.tot cut-off) | +VE | +VE | -VE | Ambiguous DILI-concern | – |
| O=C(O)c1cc(-c2ccccc2)nc2ccccc12 [cinchophen] | – | – | – | – | – | – | DILI +VE (5-8), DILI -VE (-4) ([4]; in vivo): +VE; DILI severity category ([4]; in vivo): vMost-DILI-Concern; Partition Hybrid HRM Score [5]: +VE; In vivo DILI ([3]; in vivo): +VE; THLE-Null [6]: -VE; Inhibition of rBsep cutoff<1& cmax u>.2 (rBsep): -VE; Inhibition of rBsep cutoff<3 (rBsep): +VE |
| O=c1ccc2ccccc2o1 [coumarin] | – | +VE (IC20 < 20 × Cmax.tot cut-off) | +VE | – | – | – | In vivo DILI ([3]; […]): +VE; In vivo DILI ([3]; ref Porceddu 2012): +VE; in vitro data EC2<=1x Cmax [7]: +VE; in vitro data EC20<=2uM [7]: +VE |
| CC(CCc1ccc(O)cc1)NCCc1ccc(O)c(O)c1 (stereo not drawn) [dobutamine] | -VE | -VE | -VE | -VE | -VE | vNo-DILI-Concern | – |
| CC(C)OC(=O)C(C)(C)Oc1ccc(C(=O)c2ccc(Cl)cc2)cc1 [fenofibrate] | -VE | +VE (IC20 < 20 × Cmax.tot cut-off) | – | – | – | – | Cluser analysis (HepG2 cells [2]): -VE; Partition Hybrid HRM Score ([5]; In vitro Assay, ref Aleo 2019): +VE; Ro2 Hybrid HRM Score ([5]; In vitro Assay, ref Aleo 2019): +VE |
| NS(=O)(=O)c1cc(C(=O)O)c(NCc2ccco2)cc1Cl [furosemide, reference compound] | – | – | – | – | – | – | Structural based (HCI) (HepG2 cells [1]; [9]): -VE; Cluser analysis (HepG2 cells [2]): -VE; Structural based (HCI) (HepG2 cells [2]): -VE; THLE-Null [6]: -VE |
| COC1=CC(=O)C[C@@H](C)[C@]12Oc1c(Cl)c(OC)cc(OC)c1C2=O [griseofulvin] | -VE | -VE | – | – | – | – | Partition Hybrid HRM Score ([5]; In vitro Assay, ref Aleo 2019): +VE; Ro2 Hybrid HRM Score ([5]; In vitro Assay, ref Aleo 2019): +VE |
| C[C@]12CCC(=O)C=C1CC[C@@H]1[C@@H]2[C@@H](O)C[C@@]2(C)[C@H]1CC[C@]2(O)C(=O)CO [hydrocortisone] | -VE | -VE | – | – | – | – | DILI +VE (5-8), DILI -VE (-4) ([4]; in vivo): -VE; DILI severity category ([4]; in vivo): vNo-DILI-Concern; In vivo DILI ([3]; in vivo): -VE |
| Cc1ccc(Nc2c(F)cccc2Cl)c(CC(=O)O)c1 [lumiracoxib] | – | – | – | – | – | – | Cellular toxicity (3T3 cells) [8, 10]: -VE; Combined Assay [8, 10]: +VE; GSH adduct HML [8, 10]: +VE; Hepatocyte cellular toxicity [8, 10]: -VE; MitoTox 3T3 [8, 10]: -VE; TDI CYP3A4 [8, 10]: -VE; hBSEP inhibition [8, 10]: -VE; THLE-Null [6]: +VE; in vitro data EC2<=1x Cmax [7]: +VE |
| COC(=O)C1=C(C)NC(C)=C(C(=O)OCC(C)C)C1c1ccccc1[N+](=O)[O-] (stereo not drawn) [nisoldipine] | -VE | -VE | -VE | -VE | -VE | Ambiguous DILI-concern | In vivo DILI ([3]; […]): -VE |
| Cc1cc2c(s1)Nc1ccccc1N=C2N1CCN(C)CC1 [olanzapine] | – | – | – | – | – | – | In vivo DILI ([3]; […]): -VE; In vivo DILI ([3]; ref Gustafsson 2014): +VE; In vivo DILI ([3]; ref Schadt 2015): -VE; In vivo DILI ([3]; ref Williams 2019): +VE; THLE-Null [6]: -VE |
| Nc1ccc(/N=N/c2ccccc2)c(N)n1 [phenazopyridine] | -VE | -VE | +VE | +VE | – | – | Partition Hybrid HRM Score ([5]; In vitro Assay, ref Aleo 2019): +VE; Ro2 Hybrid HRM Score ([5]; In vitro Assay, ref Aleo 2019): -VE; In vivo DILI ([3]; ref Aleo 2019): -VE |
| NNCCc1ccccc1 [phenelzine] | -VE | -VE | -VE | -VE | +VE | vLess-DILI-Concern | In vivo DILI ([3]; […]): +VE |
| CC[C@@H]1C(=O)OC[C@@H]1Cc1cncn1C [pilocarpine] | -VE | -VE | -VE | -VE | -VE | Ambiguous DILI-concern | – |
| COc1cc(NC(C)CCCN)c2ncccc2c1 (stereo not drawn) [primaquine] | -VE | -VE | -VE | -VE | -VE | vNo-DILI-Concern | hBSEP inhibition [8]: -VE; Structural based (HCI) (HepG2 cells [1]; [9]): +VE; Partition Hybrid HRM Score ([5]; In vitro Assay, ref Aleo 2019): -VE; Ro2 Hybrid HRM Score ([5]; In vitro Assay, ref Aleo 2019): -VE; In vivo DILI ([3]; ref Aleo 2019): -VE; In vivo DILI ([3]; ref O'Brien 2006): -VE; In vivo DILI ([3]; ref Schadt 2015): -VE |
| CCOC(=O)[C@H](CCc1ccccc1)N[C@@H](C)C(=O)N1Cc2ccccc2C[C@H]1C(=O)O [quinapril] | -VE | -VE | +VE | +VE | +VE | vLess-DILI-Concern | – |
| C=C[C@H]1C[N@@]2CC[C@H]1C[C@@H]2[C@@H](O)c1ccnc2ccc(OC)cc12 [quinidine] | – | +VE (IC20 < 20 × Cmax.tot cut-off) | – | – | – | – | DILI +VE (5-8), DILI -VE (-4) ([4]; in vivo): +VE; DILI severity category ([4]; in vivo): vLess-DILI-Concern; Cellular toxicity (3T3 cells) [8]: +VE; GSH adduct HML [8]: -VE; TDI CYP3A4 [8]: -VE; hBSEP inhibition [8]: -VE; Structural based (HCI) (HepG2 cells [1]): +VE |
| O=C(c1ccc(OCCN2CCCCC2)cc1)c1c(-c2ccc(O)cc2)sc2cc(O)ccc12 [raloxifene] | -VE | -VE | -VE | -VE | -VE | vNo-DILI-Concern | In vivo DILI ([3]; […]): -VE |
| Cc1nc2n(c(=O)c1CCN1CCC(c3noc4cc(F)ccc34)CC1)CCCC2 [risperidone] | -VE | -VE | +VE | +VE | – | – | Cluser analysis (HepG2 cells [2]): +VE; Structural based (HCI) (HepG2 cells [2]): -VE; In vivo DILI ([3]; ref Persson 2013): +VE |
| O=C(O)c1ccccc1O [salicylic acid] | – | – | – | – | – | – | THLE-Null [6]: -VE; in vitro data EC2<=1x Cmax [7]: +VE; Inhibition of rBsep cutoff<1& cmax u>.2 (rBsep): -VE; Inhibition of rBsep cutoff<3 (rBsep): -VE |
| CCN1CCCC1CNC(=O)c1cc(S(N)(=O)=O)ccc1OC (stereo not drawn) [sulpiride] | – | – | – | – | – | – | In vivo DILI ([3]; in vivo): +VE; THLE-Null [6]: -VE; Inhibition of rBsep cutoff<1& cmax u>.2 (rBsep): -VE; Inhibition of rBsep cutoff<3 (rBsep): -VE |
| Cn1nnc2c(C(N)=O)ncn2c1=O [temozolomide] | -VE | -VE | -VE | -VE | +VE | vLess-DILI-Concern | Structural based (HCI) (HepG2 cells [1]; [9]): +VE (lowest HCI endpoint IC50 (or in the absence of dose–response < 100 µM) < 30 × total human plasma exposure levels (Cmax.tot)); In vivo DILI ([3]; ref O'Brien 2006): -VE |
